The results in this text go back to ChEMBL document CHEMBL5614461, “Design, synthesis and biological evaluation of indazole derivatives as VEGFR-2 kinase inhibitors with anti-angiogenic properties” (Eur J Med Chem, 2024).

Series [1] can be described thus: in vivo. The note with it: male, Sprague-Dawley, rat, iv, 1 mg/kg.
Series [2] is described as follows: in vivo. To be noted: male, Sprague-Dawley, rat, po, 10 mg/kg.
The nature of series [3]: in vivo. The note with it: male, Sprague-Dawley, rat, iv, 1 mg/kg. This is another data set of the same source.
The nature of series [4]: in vivo. The note with it: male, Sprague-Dawley, rat, iv, 1 mg/kg. The source holds these as a separate data set.
Series [5] can be described thus: in vivo. To be noted: male, Sprague-Dawley, rat, po, 10 mg/kg. The source holds these as a separate data set.
The nature of series [6]: in vivo. To be noted: male, Sprague-Dawley, rat, po, 10 mg/kg. The source holds these as a separate data set.
A short description of series [7]: in vivo. The note with it: male, Sprague-Dawley, rat, po, 10 mg/kg. This is another data set of the same source.
The nature of series [8]: in vivo. The note with it: male, Sprague-Dawley, rat, iv, 1 mg/kg. The source holds these as a separate data set.

Turning to `O=C(Cc1ccccc1F)Nc1cccc(Sc2ccc3c(/C=C/c4ccccn4)n[nH]c3c2)c1`, the results for the Cmax at 24 h in series [1] and in series [5] were 1470 ng/mL and 484 ng/mL, respectively. The values for the AUC(0-t) at 24 h in series [2] and in series [8] were 1670 ng·h/mL and 1590 ng·h/mL, respectively. Besides, the MRT last at 24 h came out at 1.62 h in series [3] and 2.73 h in series [7]. Further, the Tmax at 24 h stood at 1.8 min in series [4] and 1.67 h in series [6].

A word on the Cmax: it is the highest concentration seen after dosing. The AUC(0-t) is exposure summed from dosing to a finite time, without extrapolation to infinity. Read a low AUC(0-t) as low exposure. In general, MRT last refers to the average time that molecules of a dose stay in the body. The term Tmax denotes the time from dosing to the highest level.
